Measured values from PubChem BioAssay AID179 (DTP/NCI, 2004).
pEC50, pIC50: −log10 of the molar value. The source made the active and inactive calls.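 How the source made its calls: active means compounds giving half or more protection of infected cells from virus-caused growth loss, again on retest; inactive means the rest.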 Where a SMILES comes first, the peptide text is derived from it.

Test system: CEM cells HIV-1 protection, formazan growth assay
Assay: NCI AIDS Antiviral Assay
Conditions: for pIC50: measured here: growth of uninfected CEM cells
Outline: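 Steps: treat uninfected and HIV-1-infected human CEM cells at five drug levels; quantify growth by soluble formazan; retest any compound reaching 50% protection; classify actives from the retest.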

| Structure (SMILES) | outcome | pEC50 | pIC50 |
| --- | --- | --- | --- |
| O=C1C=C(C2CCCO2)C(=O)c2c(O)ccc(O)c21 (configuration not stated) | inactive |  |  |
| O=c1/c(=C/c2ccccc2[N+](=O)[O-])sc2nnc(-c3ccco3)n12 |  | < 4.53 | < 4.53 |
| O=C(Cc1ccccc1)NNc1nc(NNC(=O)c2ccncc2)nc(Nc2ccccc2)n1 |  | < 3.70 | < 3.70 |
| CO[C@H]1/C=C/O[C@@]2(C)Oc3c(C)c(O)c4c(O)c(c(/C=N/N5CCCN(Cc6ccccc6)CC5)c(O)c4c3C2=O)NC(=O)/C(C)=C\C=C\[C@H](C)[C@H](O)C(C)[C@@H](O)C(C)[C@H](OC(C)=O)[C@@H]1C (some centres not stated) |  | < 3.70 | 5.08 |
| CC1OC(OCC2COC(O)(Oc3c(-c4ccc(O)c(O)c4)oc4cc(O)cc(O)c4c3=O)C(O)C2O)C(O)C(O)C1O (configuration not stated) | inactive |  |  |
| Nc1cc(N2CCCC2)nc(=O)n1Cc1ccccc1 | inactive |  |  |
| COC(=O)[C@@H]1[C@H]2CC[C@]3(C)[C@@H](OC(C)=O)CC[C@H]3[C@@H]2CC[C@H]1C(C)=O |  | < 3.76 | < 3.76 |
| Cc1cccc(CC(=O)c2ccccc2)n1 |  | < 3.70 | 4.27 |
| Cc1cccc(NC(=S)Nc2cccc(C)n2)n1 |  | < 3.70 | < 3.70 |
| CCNC(=S)N/N=C(\C)c1ccccn1 |  | < 6.70 | 7.80 |
| Cc1ccc2[c](c1)[Sn]([c]1ccccc1)([c]1ccccc1)[c]1cc(C)ccc1N2C |  | < 4.58 | 4.99 |
| c1ccc([C@H]2CN3CCSC3=N2)cc1 |  | < 3.70 | < 3.70 |
| COc1ccc(CCc2ccccc2CC(=O)O)cc1 |  | < 3.03 | 3.23 |
| O=C(c1ccc(Cl)cc1)c1ccc(OCCSCCCCCCCCCCSCCOc2ccc(C(=O)c3ccc(Cl)cc3)cc2)cc1 |  | < 4.86 | < 4.86 |
| CC(=O)CSc1c(-c2ccccc2)c(=O)n(-c2ccccc2)c(=S)n1-c1ccccc1 |  | < 3.70 | 4.10 |
| CCN(CC)CCCC(C)Nc1c(Sc2cnc3cc(Cl)ccc3c2NC(C)CCCN(CC)CC)cnc2cc(Cl)ccc12 (configuration not stated) |  | < 3.51 | 5.77 |
| CCN(CCCl)c1cc(C(=O)NCCCN(C)CCCNC(=O)c2cc(N(CC)CCCl)c([N+](=O)[O-])cc2[N+](=O)[O-])c([N+](=O)[O-])cc1[N+](=O)[O-] |  | < 3.70 | 4.97 |
| Nc1nc(Cl)c(N=Nc2ccc(Cl)cc2)c(NCC2(CO)CCC2)n1 |  | < 3.70 | < 3.70 |
| Cc1n[n+](CC(=O)c2ccccc2)c2sc(N)nn12 |  | < 3.70 | 3.88 |
| CC(=O)Nc1ccc(SSc2ccc(NC(C)=O)c3cccnc23)c2ncccc12 |  | < 3.70 | 5.63 |
| O=C1Nc2ccccc2Sc2ccccc21 |  | 4.03 | 3.94 |

| Structure (SMILES) | outcome | pEC50 | pIC50 |
| --- | --- | --- | --- |
| CNCCCCN(C)/[N+]([O-])=N\O |  | < 2.05 | 2.39 |
| CCCCC1(O)CC2CC1C(C)C2(C)C (configuration not stated) |  | < 3.70 | < 3.70 |
| O=C(OCc1ccccc1)N1CCN(C(=O)OCc2ccccc2)CCN(C(=O)OCc2ccccc2)CCN(C(=O)OCc2ccccc2)CCN(C(=O)OCc2ccccc2)CC1 |  | < 4.00 | < 4.00 |
| c1ccc(COc2ccc(CC3SCCCS3)cc2)cc1 |  | < 3.70 | < 3.70 |
| CC(C)CCCC(C)[C@H]1CC[C@@H]2[C@H]3CC[C@H]4C[C@@H](CCC=C(c5cc(Cl)c(OCc6cccc([N+](=O)[O-])c6)c(C(=O)O)c5)c5cc(Cl)c(OCc6cccc([N+](=O)[O-])c6)c(C(=O)O)c5)CC[C@]4(C)[C@@H]3CC[C@]12C (some centres not stated) |  | < 3.70 | < 3.70 |
| CCSCCCCCCCCCCCC(=O)O |  | 5.03 | 4.49 |
| COc1cc2cc3cc(-c4ccc(Cl)cc4)c(N4CCN(C)CC4)nc3nc2cc1OC |  | < 4.40 | 5.18 |
| C=CCn1c(N)c(N=O)c(=O)n(C)c1=O |  | < 3.70 | < 3.70 |
| c1ccc(N=C2SC(=NNc3ccccc3)SC2=Nc2ccccc2)cc1 |  | < 3.70 | < 3.70 |
| CCOC(=O)C(=C=Cc1cccs1)C(=O)c1ccccc1 |  | < 3.92 | 4.27 |
| CCOC(=O)c1c(SCCO)n(-c2ccccc2)c(=S)n(-c2ccccc2)c1=O |  | < 3.70 | < 3.70 |
| COc1ccc2c(c1)C1CCN(C)CC1OC2=O (configuration not stated) | inactive |  |  |
| N#Cc1c(-c2ccc(Cl)cc2)[nH]c(=O)n(C2OC(CO)C(O)C(O)C2O)c1=O (configuration not stated) |  | < 3.70 | < 3.70 |
| Cc1c2n(c3ccccc13)CC1CON(C)C21 (configuration not stated) |  | < 2.96 | 3.45 |
| COC(=O)C1CCCN1 (configuration not stated) | inactive |  |  |
| CCN(CC)c1cc2oc(=O)cc(C)c2cc1NC(=O)c1ccccc1 |  | < 4.34 | 5.60 |
| COc1cc(OC)cc(C2(C(=O)O)CCN(C)CC2)c1 |  | < 3.05 | 4.01 |
| COc1cc(CC(C)NC(C)=O)cc(OC)c1 (configuration not stated) |  | < 3.70 | < 3.70 |
| C(/C=N/NC1=NCCCCN1)=N\NC1=NCCCCN1 |  | < 3.70 | < 3.70 |
| COc1ccc2c(c1)OC1c3ccccc3OCC21 (configuration not stated) | inactive |  |  |
| Cc1cc(=O)[nH]c2c1C(=O)c1c(C)cc(=O)n(C)c1C2=O |  | < 5.70 | 6.59 |

| Structure (SMILES) | outcome | pEC50 | pIC50 |
| --- | --- | --- | --- |
| O=C(c1cccc(C(=O)N(c2ccccc2)c2ccccc2)n1)N(c1ccccc1)c1ccccc1 |  | < 4.95 | < 4.95 |
| O=[N+]([O-])c1cc(C2ON=C(c3ccccc3)N2C23CC4CC(CC(C4)C2)C3)ccc1Cl (configuration not stated) |  | < 3.70 | 4.09 |
| CC1OC(CC(=O)O)Cc2c1c(O)c1c(O)cc(-c3cc(=O)c4c(=O)c5c(c(=O)c=4c3=O)CC(CC(=O)O)OC5C)c(O)c1c2O (configuration not stated) | inactive |  |  |
| CCc1cccc(C(C)C)c1NC(=O)C(=O)C(C(=O)C(=O)OC)c1nc2ccccc2[nH]c1=O (configuration not stated) |  | < 3.27 | 3.57 |
| O=C(c1ccccc1)C1(c2ccccc2)SSC1(C(=O)c1ccccc1)c1ccccc1 (configuration not stated) |  | < 4.00 | < 4.00 |
| NC(=O)CC(NC(=O)c1ccccc1SC(=O)CCCC[n+]1ccccc1)C(N)=O (configuration not stated) |  | 4.49 | < 3.70 |
| O=S(=O)(O)c1cc(N=Nc2cc(S(=O)(=O)O)c3cccnc3c2O)ccc1C(O)C(O)c1ccc(N=Nc2cc(S(=O)(=O)O)c3cccnc3c2O)cc1S(=O)(=O)O (configuration not stated) |  | 4.95 | < 3.70 |
| CC(=O)O[C@@]1(C)C[C@@H](O)[C@]2(O)C=CO[C@@H](OC3OC(CO)C(O)C(O)C3O)[C@@H]21 (some centres not stated) | inactive |  |  |
| C/C(=C\c1ccc(N(C)C)cc1)C(=O)O |  | < 4.18 | < 4.18 |
| COc1ccc2c3csc4ccccc4c-3nc2c1 |  | < 3.70 | 6.37 |
| C[Si](C)(C)/N=C1\N2C(=NC1(C(F)(F)F)C(F)(F)F)Sc1ccccc12 | inactive |  |  |
| CC(C)CC(NC(=O)C(Cc1cnc[nH]1)NC(=O)C(CC(N)=O)NC(=O)C(NC(=O)C(CO)NC(=O)C(Cc1ccc(O)cc1)NC(=O)C(CO)NC(=O)C(C)NC(=O)C(CCCCN)NC(=O)C(N)CC(=O)O)C(C)O)C(=O)O (configuration not stated) (H-DKASYSTNHL-OH; configuration not given here) |  | < 4.26 | < 4.26 |
| CC1(c2cccc(C3CC4(CCC3=O)OCCCCO4)c2)OCCO1 (configuration not stated) |  | < 3.70 | < 3.70 |
| COc1cc(Cc2cnc(N)nc2N)cc(OC)c1OCCCNc1ccc([N+](=O)[O-])cc1 | inactive |  |  |
| CCC[CH2][Sn]([CH2]CCC)([O]C(=O)c1cc(F)cc(F)c1)[O][Sn]([CH2]CCC)([CH2]CCC)[O]C(=O)c1cc(F)cc(F)c1 |  | < 5.04 | 5.75 |
| O=C1NN(Cc2ccccc2)C(=O)N2CCC[C@@H]12 |  | < 3.70 | < 3.70 |
| CCN(CC)CC(=O)Nc1ccccc1C |  | < 4.00 | < 4.00 |
| O=[N+]([O-])c1ccc(S(=O)(=O)N/N=C/c2ccccc2[N+](=O)[O-])cc1 |  | < 3.99 | < 3.99 |
| N#C/C(=C\c1ccc(O)c(O)c1)C(=O)NCCCCCCCCCCNC(=O)/C(C#N)=C/c1ccc(O)c(O)c1 |  | < 3.70 | 5.56 |
| CCN(CC)CCOc1ccc(/C(=C(\Cl)c2ccccc2)c2ccccc2)cc1 |  | < 3.70 | 5.26 |
| COc1c(Cl)cc(C(=CCC[C@H]2CC[C@@]3(C)C(CC[C@@H]4C3CC[C@]3(C)C(C(C)CCCC(C)C)CCC43)C2)c2cc(Cl)c(OC)c(C(=O)O)c2)cc1C(=O)O (some centres not stated) |  | 4.92 | 3.52 |

| Structure (SMILES) | outcome | pEC50 | pIC50 |
| --- | --- | --- | --- |
| Oc1ccc(C2CC(O)c3ccccc3O2)cc1 (configuration not stated) | inactive |  |  |
| O=C(O)c1c(O)c2cc(Br)ccc2oc1=O |  | < 3.70 | 3.92 |
| C/C(=N/NC(=S)Nc1cccc(C)c1)c1ccccn1 |  | < 6.70 | 7.02 |
| Cc1c(C)c2c(c3c1OC(C)(C)CC3)CCC(C)(C)O2 |  | < 3.87 | 4.13 |
| CC(C)[Si]1(C(C)C)OCC2OC(n3c(C(=O)c4ccccc4)cc(=O)[nH]c3=O)CC2O[Si](C(C)C)(C(C)C)O1 (configuration not stated) |  | < 3.70 | 5.04 |
| CN(NC(=O)CCCl)C1=NCCN1 |  | < 3.70 | < 3.70 |
| Clc1ccccc1C1=NN(c2ccccc2)C2c3cc(Br)ccc3OCC12 (configuration not stated) |  | < 4.09 | < 4.09 |
| CC(C#N)NCc1ccccc1 (configuration not stated) | inactive |  |  |
| CN(CCn1cnc2c1c(=O)n(C)c(=O)n2C)C1CCCCC1 |  | < 3.70 | < 3.70 |
| CN(C)Cc1cc(N=Nc2ccccc2)ccc1O |  | < 3.70 | 3.99 |
| O=C1NC(=O)/C(=C/c2ccc(F)cc2)N1 |  | < 3.70 | 3.72 |
| c1ccc2c(C(c3c[nH]c4ccccc34)c3c[nH]c4ccccc34)c[nH]c2c1 |  | 7.20 | 4.72 |
| O=[N+]([O-])c1ccc2n[nH]nc2c1 |  | < 3.70 | 3.74 |
| CC1(C)OC[C@@H]([C@H](O)C2C=CC(=O)S2)O1 (some centres not stated) | inactive |  |  |
| C[C@]12CC[C@@H]3c4cc(OCC(F)(F)F)c(O)cc4C(=O)C[C@H]3[C@@H]1CC[C@@H]2O |  | < 3.70 | 5.52 |
| N#C/C=C/c1ccc(C#N)cc1 |  | < 4.19 | < 4.19 |
| Cc1c(OC(C)C(=O)O)ccc2c(-c3ccccc3)cc(=O)oc12 (configuration not stated) | inactive |  |  |
| O=c1cc(O)nc(CO)[nH]1 |  | < 3.70 | < 3.70 |
| Cc1cn(C2CCC(COP(=O)(OCC(=O)C(C)(C)C)OCC(=O)C(C)(C)C)O2)c(=O)[nH]c1=O (configuration not stated) |  | 4.51 | < 3.70 |
| C=C=C(Sc1ccccc1)C(C)(C)O |  | < 3.60 | 3.80 |
